Results published in publication PMC11091967, “Silicon-Rhodamine Functionalized Evocalcet Probes Potently and Selectively Label Calcium Sensing Receptors In Vitro, In Vivo, and Ex Vivo” (ACS Pharmacology & Translational Science, 2024).

Tests used:
[1] = Photophysical characterization; type: physicochemical; parameters: λex / λem: unit not given here; conditions: for quantum yield Φ: 94% ethanol, 750 nM, relative to Rhodamine B; for λem / λex: Table 1; for extinction coefficient ε: absorbance at 150–1350 nM, 1 cm cuvette
[2] = Spectrofluorometric fluorescence in PBS and effect of pH; type: physicochemical; conditions: 750 nM in PBS, peak fluorescence at 670
Description: Spectrofluorometric measurements were carried out by using the Agilent Cary Eclipse instrument. The voltage of the photomultiplier tube (PMT) was set to 600 for EvoSiR4 and EvoSiR6, and for 500 for SiR (4). Fluorescence of the probes was measured at concentrations ranging from 30 to 3000 nM in PBS containing various amounts of bovine serum albumin (BSA) (Sigma, A7906). Quenching experiments for the calculation of BSA binding were performed by adding a 1:1 molar ratio of tannic acid dissolved in ddH2O (Sigma, 403040) to the solution prior to measuring fluorescence.

[3] = test system: hair cells of the neuromasts within the lateral line organ; assay: In vivo labeling of neuromasts in zebrafish larvae; parameters: species or system zebrafish (Danio rerio); conditions: 4–6 dpf larvae; for fold increase in fluorescence intensity within the neuromasts: co-labeling with DiAsp; for normalized fluorescence of the neuromasts to the background fluorescence, mean and standard deviation: neuromasts identified with DiAsp
Description: (§1) For the neuromast labeling experiments, wild-type 4–6 days post fertilization (dpf) zebrafish larvae were incubated in 200 μL of E3 medium containing different doses of the SiR probes (500–5000 nM), 2.5 μM 4-(4-diethylaminostyryl)-1-methyl-pyridinium-iodid (DiAsp, Sigma, D3418), which specifically labels hair cells in the lateral line in 0.5% DMSO for 30 min (35). Next, washing and anesthesia were achieved by placing the larvae in a 35 mm imaging dish (MolBiTec, Imaging dish 1.5) which contained 500 μL of E3 medium with 168 mg/L MS-222 (Tricaine Mehanesulfonate, Sigma) for 10 min. After removing the solution, fish were side-embedded in the imaging dish using 500 μL of 0.75% low-melting temperature agarose (Sigma, A4018). Wide-field imaging was done using the Zeiss Axio Observer fluorescence microscope (LD A-Plan 10× objective, NA = 0.25), and confocal imaging was done using a Zeiss LSM 800 confocal fluorescence microscope (LD LCI Plan-Apochromat 25× objective, NA = 0.8).

zebrafish larvae = assay: Zebrafish startle reflex, tolerability and brain penetration with bath-applied probe; type: in vivo, zebrafish (Danio rerio)
Description: as §1
For the behavioral analysis, wild-type 4–6 dpf zebrafish larvae were placed individually into custom-built sound delivery system described in a previous publication.[36] For acoustic stimulation, we used a 90 dB stimulus and recorded the subsequent behavioral responses using a high-speed camera (xiQ USB3 vision) at a frame rate of 500 fps using custom scripts written in Python. The camera was placed 30 cm above the sound delivery system. The latency of the startle reflex was quantified manually by using an LED flash (780 nm wavelength) in parallel with the time of stimulus delivery. Escape responses were quantified manually, where we considered a short-latency startle response between 2 and 16 ms and a long-latency startle response above 16 ms.

[4] = test system: human parathyroid adenomas; assay: Ex vivo labeling of surgically resected human parathyroid adenomas
Description: The part of the study involving human tissues has been registered at clinicaltirals.gov and can be retrieved under the ID: NCT03831620. The study was approved by the ethics commission of canton Bern, Switzerland (KEKBE 2018–02218). Written informed consent was obtained from all patients. Human parathyroid tissues were surgically resected and were immediately put on dry ice and stored at −80 °C. The tissues were thawed at 4 °C and were washed with PBS thoroughly. The labeling of the tissues was achieved using 500 nM EvoSiR4 for 30 min in PBS containing 0.1% BSA. After labeling, the tissues were washed twice with PBS containing 0.1% BSA. For evocalcet competition experiments, the tissues were coincubated with EvoSiR4 and evocalcet in a 1:5 molar ratio for 30 min and then washed twice with PBS containing 0.1% BSA. The images were acquired using an IVIS Spectrum in vivo imaging system with a λex of 780 nm and λem of 840 nm for the autofluorescence (ICG channel) and with a λex of 650 nm and λem of 670 nm for the EvoSiR label (Cy5 channel).

human CaSR = biological target: T1, human CaSR (Homo sapiens, UniProt P41180); assay: FLIPR-based functional CaSR calcium assay in HCAR cells; type: cell-based; conditions: 5 min incubation of HCAR cells, 0.1% BSA
T1 construct: host or cells: CCL39 hamster lung fibroblasts stably transfected (HCAR), Geneticin selection
T1 sequence (P41180 20-1078): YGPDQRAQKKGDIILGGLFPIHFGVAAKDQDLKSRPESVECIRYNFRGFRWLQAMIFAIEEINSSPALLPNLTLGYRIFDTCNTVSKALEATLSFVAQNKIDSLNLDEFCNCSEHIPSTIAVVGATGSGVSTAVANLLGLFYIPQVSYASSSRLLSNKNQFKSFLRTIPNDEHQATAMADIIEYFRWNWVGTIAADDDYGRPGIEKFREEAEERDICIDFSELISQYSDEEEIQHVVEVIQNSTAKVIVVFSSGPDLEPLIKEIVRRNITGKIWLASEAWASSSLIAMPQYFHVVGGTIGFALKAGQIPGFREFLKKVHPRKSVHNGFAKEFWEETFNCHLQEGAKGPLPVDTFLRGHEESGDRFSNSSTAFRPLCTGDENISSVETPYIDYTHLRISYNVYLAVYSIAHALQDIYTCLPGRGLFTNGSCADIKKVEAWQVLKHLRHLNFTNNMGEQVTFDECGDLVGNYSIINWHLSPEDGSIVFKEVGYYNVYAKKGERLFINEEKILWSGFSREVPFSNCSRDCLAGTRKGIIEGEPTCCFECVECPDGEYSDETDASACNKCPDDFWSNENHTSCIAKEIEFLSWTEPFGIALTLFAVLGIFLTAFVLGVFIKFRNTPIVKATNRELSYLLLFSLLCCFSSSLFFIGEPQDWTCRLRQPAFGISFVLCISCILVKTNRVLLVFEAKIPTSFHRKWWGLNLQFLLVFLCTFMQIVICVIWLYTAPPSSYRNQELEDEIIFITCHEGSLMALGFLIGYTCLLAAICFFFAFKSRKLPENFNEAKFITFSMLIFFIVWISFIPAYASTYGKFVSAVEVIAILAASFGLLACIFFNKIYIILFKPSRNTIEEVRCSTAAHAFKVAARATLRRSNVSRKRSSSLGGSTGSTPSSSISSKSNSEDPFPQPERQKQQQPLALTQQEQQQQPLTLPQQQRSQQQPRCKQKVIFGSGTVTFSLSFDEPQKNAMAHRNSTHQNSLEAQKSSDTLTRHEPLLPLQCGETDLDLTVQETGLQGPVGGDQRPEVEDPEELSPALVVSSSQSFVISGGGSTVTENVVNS

CYP2D6 = test system: CYP2D6; parameters: method as in PMID 29724589; conditions: cited from earlier work

Structure (SMILES)	fluorescence lifetime τ [1]	quantum yield Φ [1]	λem [1]	λex [1]	extinction coefficient ε [1]	decrease in fluorescence at pH above 10 [2]	fold increase in fluorescence intensity within the neuromasts [3]	normalized fluorescence of the neuromasts to the background fluorescence, mean and standard deviation [3]	effect on startle responses (percentage elicited, ratio of short-latency escapes, latency) (zebrafish larvae; bath-applied 5 and 10 μM, acoustic stimulation)	entry into zebrafish CNS (zebrafish larvae; bath-applied, Tol056 strain, confocal microscopy)	concentration beyond which lethal (zebrafish larvae; bath-applied, larvae)	concentration up to which no effect on basic locomotion capabilities (zebrafish larvae; bath-applied, larvae)	concentration above which marked increase in tissue fluorescence ([4]; 650 nm excitation)	EC50 (human CaSR; EC50, 1× wash, 1× wash)	EC50 (human CaSR; EC50, 3× wash, 3× wash)	EC50 (human CaSR; EC50, 5× wash, 5× wash)	EC50 (human CaSR; EC50, no wash, no wash)	decrease in tissue fluorescence upon evocalcet competition ([4]; 500 nM EvoSiR4 co-administered with 2.5 μM evocalcet)	CYP2D6 inhibition (CYP2D6)
Cc1cc(C(=O)NCCCCNC(=O)Cc2ccc(N3CC[C@H](N[C@H](C)c4cccc5ccccc45)C3)cc2)ccc1C1=C2C=CC(=[N+](C)C)C=C2[Si](C)(C)c2cc(N(C)C)ccc21 [EvoSiR4]	2.43 ± 0.164 ns	0.288	670	650	14,175 M^–1 cm^–1	50%	5.7 fold	5.71 ± 4.4	no significant difference	does not enter the zebrafish CNS	> 20 µM	up to 10 μM	> 500 nM	380 ± 240 nM	620 ± 310 nM	330 ± 210 nM	37 ± 8 nM		
Cc1cc(C(=O)NCCCCCCNC(=O)Cc2ccc(N3CC[C@H](N[C@H](C)c4cccc5ccccc45)C3)cc2)ccc1C1=C2C=CC(=[N+](C)C)C=C2[Si](C)(C)c2cc(N(C)C)ccc21 [EvoSiR6]	2.33 ± 0.135 ns	0.278	670	650	16,601 M^–1 cm^–1		5.6 fold	5.6 ± 3.1											
C[C@@H](N[C@H]1CCN(c2ccc(CC(=O)O)cc2)C1)c1cccc2ccccc12 [evocalcet]																		64%	no direct CYP2D6 inhibition
